According to US20240381872A1, “SUBSTITUTED 2,3-DIHYDRO[1,3]THIAZOLO[4,5-B]PYRIDINES, SALTS THEREOF AND THEIR USE AS HERBICIDALLY ACTIVE SUBSTANCES” (BAYER AKTIENGESELLSCHAFT, priority 2021, published 2024):

Tests used:
Type in all cases: in vivo
Lolium rigidum (LOLRI) [1] = experiment: Herbicidal post-emergence action, section B (Table B5); conditions: visual rating about 3 weeks after treatment vs untreated controls; for pest or weed control at 1280 g/ha: Lolium rigidum, post-emergence, 504 h, read-out: post-emergence activity against LOLRI in %
Summary of the method: (§1)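 Scores are visual % activity relative to untreated plants (0% = like control, 100% = dead), taken about 3 weeks after spraying. Compounds, as WP or EC in water with 0.5% additive at 600 L/ha, went onto one-leaf-stage weeds grown from seed in sandy loam under greenhouse conditions.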

[2] = system: Amaranthus retroflexus (AMARE); experiment: Herbicidal pre-emergence action, section A (Table A11); conditions: for pest or weed control at 320 g/ha: Amaranthus retroflexus, 504 h, read-out: pre-emergence activity against AMARE in %
Summary of the method: (§2)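 Test plants, grown from seed sown in sandy loam with two species per pot, were treated pre-emergence by spraying the covering soil with WP or EC formulations at 600 l/ha water plus 0.5% additive. Visual grading of percent damage followed at ca. 3 weeks.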

[3] = system: Echinochloa crus-galli (ECHCG); experiment: Herbicidal pre-emergence action, section A (Table A3); conditions: application rate 320 g/ha, visual grading after ca. 3 weeks vs untreated controls; for pest or weed control at 320 g/ha: Echinochloa crus-galli, pre-emergence, 504 h, read-out: pre-emergence activity against ECHCG in %
Summary of the method: as §2

[4] = system: Matricaria inodora (MATIN); experiment: Herbicidal pre-emergence action, section A (Table A6); conditions: application rate 320 g/ha, visual grading after ca. 3 weeks vs untreated controls; for pest or weed control at 320 g/ha: Tripleurospermum inodorum, pre-emergence, 504 h, read-out: pre-emergence activity against MATIN in %
Summary of the method: as §2

[5] = system: Matricaria inodora (MATIN); experiment: Herbicidal pre-emergence action, section C (Table C6); conditions: visual grading after ca. 3 weeks; for pest or weed control at 320 g/ha: Tripleurospermum inodorum, pre-emergence, 504 h, read-out: pre-emergence activity against MATIN in %
Description: Seeds of mono- and dicotyledonous weed plants and crop plants were sown, in plastic or organic planting pots, in sandy loam and covered with soil. The compounds according to the invention, formulated in the form of wettable powders (WP) or as emulsifiable concentrates (EC), were applied to the surface of the covering soil as aqueous suspension or emulsion, with the addition of 0.5% of an additive, at an application rate of 600 l of water/ha (converted). Following treatment, the pots were placed in a greenhouse and kept under optimum growth conditions for the test plants. The visual grading of the damage to the test plants was carried out after ca. 3 weeks in comparison to untreated controls (herbicidal effect in percent (%): 100% effect=plants have died off, 0% effect=as control plants).

Veronica persica (VERPE) = experiment: Herbicidal post-emergence action, section B (Table B10); conditions: visual rating about 3 weeks after treatment vs untreated controls; for post-emergence activity against VERPE in %: application rate 320 g/ha; for pest or weed control at 1280 g/ha: Veronica persica, post-emergence, 504 h, application rate 1280 g/ha, read-out: post-emergence activity against VERPE in %
Summary of the method: as §1

[6] = system: Polygonum convolvulus (POLCO); experiment: Herbicidal post-emergence action, section E (Table E7); conditions: visual assessment ca. 3 weeks after spraying
Summary of the method: (§3)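 Scoring was visual, in percent relative to untreated plants, about three weeks after treatment. Test plants had been sprayed on their green parts at the single-leaf stage with an aqueous formulation including 0.5% additive, applied at 600 l water/ha.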

[7] = system: Amaranthus retroflexus (AMARE); experiment: Herbicidal post-emergence action, section E (Table E3); conditions: application rate 320 g/ha, assessed visually after ca. 3 weeks; for pest or weed control at 320 g/ha: Amaranthus retroflexus, post-emergence, 504 h, read-out: post-emergence activity against AMARE in %
Description: (§4) Seeds of mono- and dicotyledonous weed plants and crop plants were sown, in plastic or organic planting pots, in sandy loam, covered with soil and grown in a greenhouse under controlled growth conditions. 2 to 3 weeks after sowing, the test plants were sprayed in the single-leaf stage. The compounds according to the invention, formulated in form of wettable powders (WP) or as emulsifiable concentrates (EC), were sprayed onto the green plant parts as aqueous suspension or emulsion, with the addition of 0.5% of an additive, at an application rate of 600 l of water/ha (converted). The test plants were placed in the greenhouse for ca. 3 weeks under optimum growth conditions, and then the effect of the preparations was assessed visually in comparison with untreated controls (herbicidal effect in percent (%): 100% effect=plants have died off, 0% effect=as control plants).

Lolium rigidum (LOLRI) [8] = experiment: Herbicidal pre-emergence action, section A (Table A5); conditions: application rate 320 g/ha, visual grading after ca. 3 weeks vs untreated controls; for pest or weed control at 320 g/ha: Lolium rigidum, pre-emergence, 504 h, read-out: pre-emergence activity against LOLRI in %
Summary of the method: as §2

[9] = system: Digitaria sanguinalis (DIGSA); experiment: Herbicidal pre-emergence action, section A (Table A12); conditions: application rate 320 g/ha; for pest or weed control at 320 g/ha: Digitaria sanguinalis, 504 h, read-out: pre-emergence activity against DIGSA in %
Summary of the method: as §2

[10] = system: Echinochloa crus-galli (ECHCG); experiment: Herbicidal post-emergence action, section E (Table E5); conditions: application rate 320 g/ha, visual assessment ca. 3 weeks after spraying; for pest or weed control at 320 g/ha: Echinochloa crus-galli, 504 h, read-out: post-emergence activity against ECHCG in %
Description: as §4

[11] = system: Alopecurus myosuroides (ALOMY); experiment: Herbicidal post-emergence action, section E (Table E2); conditions: application rate 320 g/ha, assessed visually after ca. 3 weeks; for pest or weed control at 320 g/ha: Alopecurus myosuroides, post-emergence, 504 h, read-out: post-emergence activity against ALOMY in %
Summary of the method: as §3

[12] = system: Abutilon theophrasti (ABUTH); experiment: Herbicidal pre-emergence action, section A (Table A1); conditions: visual grading after ca. 3 weeks vs untreated controls
Summary of the method: as §2

[13] = system: Amaranthus retroflexus (AMARE); experiment: Herbicidal post-emergence action, section B (Table B11); conditions: application rate 320 g/ha, visual rating about 3 weeks after treatment vs untreated controls; for pest or weed control at 320 g/ha: Amaranthus retroflexus, post-emergence, 504 h, read-out: post-emergence activity against AMARE in %
Summary of the method: as §1

SMILES	pre-emergence activity against ECHCG in % [3]	pre-emergence activity against MATIN in % [4]	post-emergence activity against VERPE in % (Veronica persica (VERPE))	post-emergence activity against AMARE in % [7]	pre-emergence activity against LOLRI in % (Lolium rigidum (LOLRI) [8])	pre-emergence activity against DIGSA in % [9]	post-emergence activity against ECHCG in % [10]	post-emergence activity against ALOMY in % [11]	post-emergence activity against AMARE in % [13]	pest or weed control at 1280 g/ha (Lolium rigidum (LOLRI) [1]; application rate 1280 g/ha)	pest or weed control at 320 g/ha ([2]; application rate 320 g/ha)	pest or weed control at 320 g/ha [3]	pest or weed control at 320 g/ha [4]	pest or weed control at 320 g/ha ([5]; application rate 320 g/ha)	pest or weed control at 1280 g/ha (Veronica persica (VERPE))	pest or weed control at 320 g/ha [7]	pest or weed control at 320 g/ha (Lolium rigidum (LOLRI) [8])	pest or weed control at 320 g/ha [9]	pest or weed control at 320 g/ha [10]	pest or weed control at 320 g/ha [11]	also measured
COCC1(C(=O)N2CSc3cc(C)c(-c4ccccc4F)nc32)CC(Cl)=NO1 (stereo not shown) [Example I-128]	100%	100%	90%	90%	100%	100%	90%	90%	90%												post-emergence activity against LOLRI in % (Lolium rigidum (LOLRI) [1]; application rate 320 g/ha): 90%; pre-emergence activity against AMARE in % ([2]; application rate 320 g/ha): 90%; pre-emergence activity against MATIN in % ([5]; application rate 80 g/ha): 80%; post-emergence activity against POLCO in % ([6]; application rate 80 g/ha): 90%; pre-emergence activity against ABUTH in % ([12]; application rate 320 g/ha): 90%
CCOCCS(=O)(=O)N1C[S+]([O-])c2cc(C)c(-c3ccccc3F)nc21 (stereo not shown) [Example I-127]										90%	90%	100%	100%	90%	90%	90%	100%	100%	90%	90%	pest or weed control at 80 g/ha ([6]; Fallopia convolvulus, 504 h, application rate 80 g/ha, read-out: post-emergence activity against POLCO in %): 90%; pest or weed control at 320 g/ha [13]: 90%
Cc1cc2c(nc1-c1cccc(F)c1F)NCS2 [Example I-029, 5-(2,3-difluorophenyl)-6-methyl-2,3-dihydro[1,3]thiazolo[4,5-b]pyridine]										90%	90%	100%	90%	80%	90%	80%	100%	100%	80%	80%	pest or weed control at 320 g/ha ([6]; Fallopia convolvulus, 504 h, application rate 320 g/ha, read-out: post-emergence activity against POLCO in %): 90%; pest or weed control at 1280 g/ha ([12]; Abutilon theophrasti, pre-emergence, 504 h, application rate 1280 g/ha, read-out: pre-emergence activity against ABUTH in %): 90%; pest or weed control at 320 g/ha [13]: 90%
COC(=O)CCC(=O)N1CSc2cc(C)c(-c3ccccc3F)nc21 [Example I-010]	100%	90%	90%	80%	100%	100%	90%	80%	90%												post-emergence activity against LOLRI in % (Lolium rigidum (LOLRI) [1]; application rate 1280 g/ha): 90%; pre-emergence activity against AMARE in % ([2]; application rate 1280 g/ha): 100%; pre-emergence activity against MATIN in % ([5]; application rate 320 g/ha): 90%; post-emergence activity against POLCO in % ([6]; application rate 320 g/ha): 90%; pre-emergence activity against ABUTH in % ([12]; application rate 1280 g/ha): 90%
